{"source": "patent US20250186365A1", "about": "“COMBINATION OF ANTISPASMODIC AND OSMOTIC AGENTS FOR TOPICAL PRODUCTS AND METHOD OF USE THEREOF” (priority 2023, published 2025)", "key": {"[1]": {"tested_on": "mouse extensor digitorum longus muscles", "test": "Isolated mouse muscle contraction study", "experimental": "FIG. 4 is a schematic diagram of a validated isolated mouse muscle contraction study. The mouse muscles were isolated and placed in a physiological buffer within a tissue bath. Muscles were anchored at one end to the chamber floor and connected at the other end to a force transducer. After establishing a baseline response to the electrical field stimulation, HD was added to the buffer at concentrations ranging from 0.01% w/w to 1% w/w, and the impact on muscle contractile force was recorded over time at the fixed frequency of 150 Hz.\nThis subsequent study was aimed to elucidate the specific effects of HD on isolated muscle tissue from mice, to quantify its potential use as a muscle relaxant. The study's design allowed for the controlled assessment of muscle contractility in a physiological buffer, minimizing external variables present in in vivo models. Muscle Isolation: The mouse extensor digitorum longus muscles were carefully dissected and mounted in a tissue bath super fused with oxygenated physiological buffer, ensuring tissue viability throughout the experiment (FIG. 4). Baseline Measurement: Initial contractile responses were established via electrical field stimulation at various frequencies, setting a comparative baseline for subsequent HD application effects. HD Application: Differing concentrations of HD (ranging from 0.01% to 1%) were introduced to the buffer. The muscle's contractile force (amplitude, which is the maximum contractile force) was determined to assess HD's concentration-dependent effects (FIG. 6). Stimulation Frequency Adjustment: To explore the frequency-dependent nature of HD's action, muscles underwent varied frequencies of electrical stimulation. This protocol is aimed to simulate conditions of sporadic muscle spasms."}, "[2]": {"tested_on": "hairless mice", "test": "Rotarod performance study in hairless mice", "format": "in vivo", "details": "5% HD topical; for time spent on Rota Rod: 20 rpm, vehicle 60 seconds", "experimental": "Once the mice were trained, the rod was rotated at a constant speed of 20 rpm. Then the mice were placed on the rotating rod and length of time they could stay on the rotating rod was measured.\nThe Rotarod study was to investigate the skeletal muscle relaxant effects of HD, specifically its impact on motor coordination and balance in hairless mice. The study was structured to assess both the kinetics of HD's effect over time and its efficacy in inducing muscle relaxation. Efficacy of HD was determined post-treatment at intervals of 15, 30, 60, 75, 90 minutes. Control and Treatment Groups: Each stage included a control group receiving vehicle (Aloe Vera Gel) and a test group treated with HD, 5% w/w HD (0.5 g) in the vehicle (9.5 g Aloe Vera Gel). The topical treatment was applied to the thighs of all four limbs for each mouse."}, "[3]": {"tested_on": "hind limb muscle", "test": "Rat hind limb muscle twitch study", "format": "in vivo, Sprague-Dawley rats", "experimental": "Adverting now to the drawings, FIG. 1 is a schematic diagram of a validated muscle twitch experimental set-up in the present disclosure. Here, anesthetized Sprague-Dawley rats were prepared for muscle contraction assessment of their hind limbs. The hind limbs were shaved and secured at the knee and ankle joints to prevent movement. The distal tendon of the targeted muscle was connected to a high-sensitivity force transducer to measure contractile force with precision. Electrical stimulation was delivered via electrodes positioned on the sciatic nerve to evoke muscle contractions. Vehicle (control study) or 5% w/w of HD was topically applied to the dermal area corresponding to the muscle group under study, ensuring proximity for local diffusion and effect. A study was performed to evaluate the effects of HD on muscle contractility using a validated in vivo rat model. The experimental setup was meticulously designed to measure the contractile force of the hind limb muscle in response to electrical stimulation of the sciatic nerve, providing a quantitative assessment of muscle relaxation and contraction dynamics in the presence of HD. Anesthetized Sprague-Dawley rats were used for this study, ensuring minimal variability in response to HD application. Hind limbs were shaved and then immobilized at the knee and ankle joints to isolate the effect to the targeted muscle group. […]"}}, "note": "Entries after “also recorded” stand apart in the source; their conditions may differ."}
{"compound": "CCCCC(O)CO", "note": "(centres unmarked) [HD, 1,2-hexanediol]", "values": [{"measurement": "inhibitory effect on muscle contraction", "setting": "[1]; 0.01% HD in buffer, 150 Hz", "value": "minimal effects; also recorded: No significant inhibitory effect"}, {"measurement": "reduction in contractile force", "setting": "[1]; 0.1% HD in buffer, 150 Hz, vs vehicle controls", "value": "about 44%"}, {"measurement": "torque generation against stimulus frequency", "setting": "[1]; 0.5% HD vs vehicle, n=5, p<0.01", "value": "frequency-dependent decrease in torque generation; also recorded: inhibition is more complete at higher frequencies of stimulation"}, {"measurement": "recovery from the muscle relaxant effect", "setting": "[2]", "value": "complete recovery of all mice"}, {"measurement": "time spent on Rota Rod", "setting": "[2]; 30 minutes post treatment", "value": "significant decrease"}, {"measurement": "time spent on Rota Rod", "setting": "[2]; 60 minutes post treatment", "value": "significant decrease"}, {"measurement": "duration of muscle contraction", "setting": "[3]; 5% w/w HD topical vs vehicle, p<0.05", "value": "statistically significant reduction"}, {"measurement": "ability to maintain tetanic contraction during the stimulus period", "setting": "[3]; 5% w/w HD topical, electrical stimulation at 150 Hz", "value": "failing to maintain tetanic tension; also recorded: unable to maintain tetanic contraction"}]}
